Laboratory results taken from patent US20100056431A1, “MEDICAL USES” (priority 2006, published 2010).
Entries after “also recorded” stand apart in the source; their conditions may differ.

Legend:
phosphorylated MAPK = experiment: Competitive inhibition of LL-37 on Heregulin-induced MAPK phosphorylation in MCF7 cells (Western blot); format: cell-based, human; conditions: Heregulin 2 ng/ml
Method: Heregulin (2 ng/ml) was added to the breast cancer line MCF7, which produces virtually no LL-37 on its own, together with LL-37 (2 μM) and LL-25 at concentrations as indicated. In the control experiments, the solvent (PBS), or LL-37, LL-25 or heregulin (HRG) were added as the only substrates. The quantitative evaluation of triplicate measurements is shown together with the Western blot of one of the triplicates.
ZR75-1 ells were grown in Optimem and 10% FCS, and plated in 12-well plates at 100 000 cells/well, corresponding 70% confluency. After reattachment, cells were starved for 48 hours in DMEM, no FCS. Test substrate dissolved in 50 μl PBS were added to the medium, and cells were incubated for 20 min. […] The signal was captured in a CCD camera (Fuji, Tokyo, Japan) for 1 min, and evaluated by Image Gauge Software. For quantification, the signals were normalized against the Ponceau S staining that had been scanned in and quantified using the same software.
In a further experiment, Heregulin (2 ng/ml) was added to the breast cancer line MCF7, which produces virtually no LL-37 on its own, together with exogenous LL-37 (2 μM) and LL-25 at concentrations as indicated. […] The quantitative evaluation of triplicate measurements is shown together with the Western blot of one of the triplicates.

phosphorylated MAPK 1/2 = experiment: Heregulin-induced MAPK phosphorylation in ZR75-1 cells (Western blot); format: cell-based, human; conditions: ZR75-1 cells (LL-37 expressing), Heregulin 2 ng/ml, 20 min
Method: ZR75-1 cells were treated for 20 min with Heregulin (2 ng/ml), LL-25 or LL-37 or in combination as indicated. Protein extracts were analysed by Western blot analysis against phosphorylated MAPK.
ZR75-1 ells were grown in Optimem and 10% FCS, and plated in 12-well plates at 100 000 cells/well, corresponding 70% confluency. After reattachment, cells were starved for 48 hours in DMEM, no FCS. Test substrate dissolved in 50 μl PBS were added to the medium, and cells were incubated for 20 min. The stimulation was stopped by washing the cells with ice-cold PBS containing 1 mM NaF, 100 μM Na3VO4, and 2 mM PMSF, and then lysed in 300 μl SDS lysis buffer containing the inhibitors as above. Proteins were separated in an 8% gel, and blotted to nitrocellulose filters according to standard conditions. Filters were reversibly stained with 3% Ponceau S, blocked with 4% NFDM in TBS/0.1% Tween20, and incubated o.n. with the primary antibody. For detection of phosphorylated MAPK 1/2 (pThr 202/pTyr 204), a monoclonal antibody (Cell Signaling Inc) was used at 1/2000. […] The signal was captured in a CCD camera (Fuji, Tokyo, Japan) for 1 min, and evaluated by Image Gauge Software. For quantification, the signals were normalized against the Ponceau S staining that had been scanned in and quantified using the same software.

HaCaT cells [1] = experiment: LL-37 peptide treatment of epithelial cells, proliferation by [3H]-Thymidine incorporation; format: cell-based, human; conditions: serum starved 72 hours, LL-37 10 μg/ml, DMEM+5% FCS, versus non treated control
Method: A spontaneously immortalised human keratinocyte cell line (HaCaT) ^19 was cultured in DMEM (Dulbecco's modified Eagle's medium, Gibco BRL, Life Technologies, Scotland) supplemented with 10% FCS (fetal calf serum, Hy-Clone, Boule Nordic AB Huddinge, Sweden) and antibiotics (PEST=penicillin 50 U/l and streptomycin […], Gibco BRL). Cells were harvested at 70% confluence and seeded in 96-well plates, 2000 cells in 100 μl medium (DMEM+10% FCS and PEST). After 12 hours, medium was changed to serum free medium (DMEM+PEST) and cells were synchronized in G0/G1 by serum starvation for 72 hours and then treated with 100 μl of medium (DMEM+5% FCS+PEST) containing synthetic biologically active LL-37 peptide at 10 μg per ml. Cells treated with only DMEM+5% FCS and PEST served as control. The experiments were performed in quadruplicates. Cell proliferation was evaluated by [^3H]-Thymidine incorporation. Cells were treated with 1 μCi/well of [^3H]-Thymidine (20.00 Ci/mmol, Perkin Elmer Life Sciences Inc. Boston, Mass.) during 12 hours and harvested (Harvester 96, Tomtec, Orage, Conn.) onto a glass fiber filter (Wallac Oy Turku, Finland). The incorporation of [^3H]-Thymidine was determined using a liquid scintillation counter (Microbeta Pluss, Wallac Sveriges AB). The experiment was repeated twice in 6 replicates.

ERK1/2 = experiment: Assay of phosphorylated ERK1/2 in LL-37 treated HaCaT cells (Western blot); format: cell-based, human; conditions: LL-37 10 μg/ml, 48 hours, 1% or 5% FCS
Method: HaCaT cells were seeded at 10% confluence and kept in DMEM with 0.2% FCS for 36 hours. For the next 48 hours, cells were cultured in DMEM with 1% or 5% FCS respectively, and in presence or absence of LL-37 at 10 μg/ml, with daily changes of medium. EGF at 10 ng/ml served as positive control. The expression of phosphorylated ERK 1/2 was evaluated by Western blot analysis with a mouse monoclonal antibody (Cell Signaling Technology, Beverly Mass.).

[2] = Antibacterial assay of synthetic LL-37 peptide
Source text: LL-37 peptide was synthesised and purified by HPLC to a purity of 98% (PolyPeptide Laboratories A/S, Hillerød, Denmark). Biological activity of the peptide was confirmed in an antibacterial assay ^18.

HaCaT cells [3] = experiment: Pertussis toxin assay (LL-37 induced HaCaT cell proliferation); format: cell-based, human; conditions: pertussis toxin 20 ng/ml preincubated 24 h before LL-37 at 5 or 10 μg per ml, data not shown
Method: To assess the involvement of FPRL1 in mediating the stimulation of epithelial cell proliferation induced by hCAP18/LL-37, HaCaT cells were treated with the G-protein-coupled receptor inhibitor pertussis toxin. Cells were preincubated with pertussis toxin (Sigma-Aldrich, Switzerland) 24 h before the LL-37 treatment in a final toxin concentration of 20 ng/ml. Medium was changed 48 hours after cell seeding and the HaCaT cells were treated with 100 μl of medium (DMEM+5% FCS and PEST) containing synthetic biologically active LL-37 peptide at 5 or 10 μg per ml respectively. Cells treated with only DMEM+5% FCS and PEST served as control.

LLGDFFRKSKEKIGKEFKRIVQRIK (listed as Homo sapiens) [LL-25, N-terminal 25 amino acids of the C-terminal LL-37 peptide derived from human cathelicidin antimicrobial protein hCAP18]
blocking of the endogenous LL-37 contribution to MAPK activation through HRG (phosphorylated MAPK): can significantly be blocked by LL-25
inhibition of LL-37 on Heregulin-induced MAPK phosphorylation (phosphorylated MAPK; exogenous LL-37 2 μM, LL-25 at varied concentrations): competitive and highly efficient inhibitor to LL-37, even at 10% of the concentration of LL-37
effect on MAPK phosphorylation through Heregulin (phosphorylated MAPK 1/2): inhibits MAPK phosphorylation

LLGDFFRKSKEKIGKEFKRIVQRIKDFLRNLVPRTES (listed as Homo sapiens) [LL-37, C-terminal peptide of human cathelicidin antimicrobial protein hCAP18; synthesised, HPLC purity 98%]
cell proliferation ([3H]-Thymidine incorporation) (HaCaT cells [1]): significantly increased cell proliferation; also recorded: significant increase in cell proliferation
activation of ERK1/2 (phosphorylated ERK1/2) (ERK1/2): no significant activation of ERK1/2
biological activity in antibacterial assay [2]: confirmed

pertussis toxin
suppression of LL-37 stimulated proliferation by pertussis toxin pretreatment (HaCaT cells [3]): approximately 50%
